Data reported in US20240385180A1, “PRODUCTION OF ORGANOID DERIVED FROM CTC OF SMALL CELL LUNG CANCER PATIENT, AND IGF1R INHIBITOR AS A MOLECULAR TARGET DRUG FOR SMALL CELL LUNG CANCER” (KEIO UNIVERSITY, priority 2021, published 2024).

Experiments:
[1] = tested on: IGF-dependent small cell lung cancer organoids; experiment: In vitro apoptosis assay (Annexin V-FITC / propidium iodide flow cytometry); format: cell-based, human; settings: 1 μM, cultured for 5 days, vs DMSO
Procedure: An IGF1R inhibitor was added to the medium of small cell lung cancer organoids, and the occurrence of apoptosis was measured. First, a small cell lung cancer organoid was dissociated into a single cell using TrypLE Express (Thermo Fisher Scientific), further, filtered using a 20 μm cell strainer. Next, add 5×10^4 cells per well were seeded to a […], and cultured for 5 days in the presence of 1 μM IGF1R inhibitor or 1 μM FGFR inhibitor. DMSO was added to the control cell culture medium. Subsequently, using a commercially available kit (product name “TACS Annexin V-FITC Apoptosis Detection Kit”, R&D System), the induction of apoptosis was measured by flow cytometry using the BD FACSCalibur system (Becton Dickinson). FIG. 10 is a graph showing the results of the flow cytometry. In FIG. 10, the propidium iodide-positive and Annexin V-positive cells are the cells in which apoptosis was induced.

[2] = tested on: KOR317 line (YAP1 positive subtype, IGF-dependent small cell lung cancer organoid); experiment: Effect of IGF1R inhibitor in vivo: tumor volume in mice transplanted with KOR317 line; settings: KOR317 (YAP1-positive, IGF-dependent) subcutaneous in NOD/Shi-scid, IL-2Rγ mice; 50 mg/kg once a day, 5 days a week, 5 weeks; vs vehicle
Procedure: (§1) Specifically, first, small cell lung cancer organoids (KOR317 line and KOR457 line) were peeled off from Matrigel (registered trademark) using cell recovery solution (BD Bioscience). The peeled small cell lung cancer organoids were kept on ice for 30 minutes while being loosened by pipetting every 10 minutes. Next, approximately 1×10^5 of respective small cell lung cancer organoids was resuspended in about 50 μL of Matrigel, and the respective suspensions was subcutaneously injected into mice. As the mice, 6-10 weeks old NOD/Shi-scid, IL-2Rγ mice were used. Once the tumor diameter (long×short×height/2) was approximately 100-150 mm^3, the subjects were randomly divided into a drug administration group and a placebo treatment group. Each group was set as n≥3. Subsequently, linsitinib (50 mg/kg) was administered to the drug administration group, and vehicle was administered to the placebo treatment group once a day, 5 days a week, for a total of 5 weeks. Linsitinib was dissolved in 30% PEG400-0.5% tween80-5% propylene glycol (vehicle) and administered. Tumor diameter (major axis×short axis×height/2) was measured once a week.

[3] = tested on: KOR457 line (ASCL1 positive subtype, IGF-independent small cell lung cancer organoid); experiment: Effect of IGF1R inhibitor in vivo: tumor volume in mice transplanted with KOR457 line; settings: KOR457 (ASCL1-positive, IGF-independent) subcutaneous in NOD/Shi-scid, IL-2Rγ mice; 50 mg/kg once a day, 5 days a week, 5 weeks; vs vehicle
Procedure: as §1

[4] = tested on: IGF-dependent small cell lung cancer organoids; experiment: Effect of IGF1R inhibitor in vitro: number of living cells (CellTiter-Glo); format: cell-based, human; settings: 0.1, 1, 10, 100 μM in complete medium, fifth day after adding the drug, vs DMSO
Procedure: An IGF1R inhibitor was added to the medium of small cell lung cancer organoids, and the effect on the growth of small cell lung cancer organoids was investigated. As small cell lung cancer organoids, a plurality of types of each of IGF-dependent small cell lung cancer organoid lines and IGF-independent small cell lung cancer organoid lines were used. Furthermore, linsitinib (CAS number: 867160-71-2) was used as an IGF1R inhibitor. In addition, the number of living cells was measured using a commercially available kit (product name “CellTiter-Glo”, Promega). A small cell lung cancer organoid was dissociated into a single cell using TrypLE Express (Thermo Fisher Scientific), and further filtered using a 20 μm cell strainer. Then, 3×10^3 per well cells were seeded and cultured in complete medium added with 0.1, 1, 10, and 100 μM lincitinib. In addition, as a control, a group in which dimethyl sulfoxide (DMSO), which was used as a solvent for linsitinib, was added was also prepared. The number of living cells was measured on the fifth day after adding the drug.

Q: For `C[C@]1(O)C[C@@H](c2nc(-c3ccc4ccc(-c5ccccc5)nc4c3)c3c(N)nccn32)C1` [IGF1R inhibitor, linsitinib], which “induction of apoptosis (propidium iodide-positive and Annexin V-positive cells)” value [1] is on record?
A: The value was “induces apoptosis”.

Q: What about the “tumor growth (tumor volume over time)” value [2] of the same compound?
A: Its value is “tumor growth was suppressed”.

Q: And the “tumor growth (tumor volume over time)” value [3]?
A: The value was “no effect”.

Q: And the “growth of organoids (number of living cells)” value [4]?
A: Its value is “inhibits the growth”.
